The nature of this series: Determination of total drug concentration in rat brain (BBB penetration). The class given is in vivo. Particulars: male SD rat, 2 mg/kg IV infusion for 4 hours, brain collected at end of 4 hours.
Turning to `C=CC(=O)N1CCN(c2nc(=O)n3c4c(c(-c5ccc(F)cc5F)c(C(F)(F)F)cc24)SC[C@@H]3COC)CC1` (atropisomer, axis not shown) [Example 13-17], the BBB activity entry was “+ (Compounds that were measured as having a total concentration in the brain of at least 60 ng/g are indicated as “+”)”. Consider `C=CC(=O)N1[C@H](C)CN(c2nc(=O)n3c4c(c(-c5cc(Br)c(F)cc5F)c(C(F)(F)F)cc24)SC[C@@H](Oc2cnccn2)C3)C[C@@H]1C` [Example 13-42], for which the BBB activity result was “+ (Compounds that were measured as having a total concentration in the brain of at least 60 ng/g are indicated as “+”)”. Regarding `C=CC(=O)N1[C@H](C)CN(c2nc(=O)n3c4c(c(-c5cc(Cl)c(F)cc5F)c(C(F)(F)F)cc24)SCC2(COC2)C3)C[C@@H]1C` (atropisomer, axis not shown) [Example 13-44], the BBB activity entry is reported as “+ (Compounds that were measured as having a total concentration in the brain of at least 60 ng/g are indicated as “+”)”.

Consider `C=CC(=O)N1[C@H](C)CN(c2nc(=O)n3c4c(c(-c5cc(Cl)c(F)cc5F)c(C(F)(F)F)cc24)SC[C@@H]3CC2CCN(CC)CC2)C[C@@H]1C` [Example 13-86], for which the BBB activity result was “− (Compounds that did not meet this threshold are indicated as “−”)”. Regarding `C=CC(=O)N1[C@H](C)CN(c2nc(=O)n3c4c(c(-c5cc(Br)c(F)cc5F)c(C(F)(F)F)cc24)SC[C@@H]3COC)C[C@@H]1C` (atropisomer, axis not shown) [Example 13-4], the BBB activity result is given as “+ (Compounds that were measured as having a total concentration in the brain of at least 60 ng/g are indicated as “+”)”. `C=CC(=O)N1C[C@H](C)N(c2nc(=O)n3c4c(c(-c5cc(F)c(F)cc5F)c(C(F)(F)F)cc24)SC[C@@H]3CN2CCN(CC(F)F)CC2)C[C@H]1C` [Example 13-57]: the BBB activity result is listed as “− (Compounds that did not meet this threshold are indicated as “−”)”.

In the case of `C=CC(=O)N1C[C@H](C)N(c2nc(=O)n3c4c(c(-c5cc(Cl)c(F)cc5F)c(C(F)(F)F)cc24)SCC2(CCOCC2)C3)C[C@H]1C` [Example 13-34], the BBB activity entry was “+ (Compounds that were measured as having a total concentration in the brain of at least 60 ng/g are indicated as “+”)”.

Take `C=CC(=O)N1C[C@H](C)N(c2nc(=O)n3c4c(c(-c5ccc(F)cc5F)c(Cl)cc24)OC[C@H]3CC2CCN(CC(F)F)CC2)C[C@H]1C` [Example 13-59]: the BBB activity result is “− (Compounds that did not meet this threshold are indicated as “−”)”.

For `C=CC(=O)N1[C@H](C)CN(c2nc(=O)n3c4c(c(-c5cc(Cl)c(F)cc5F)c(C(F)(F)F)cc24)SC[C@@H](N2CCOCC2)C3)C[C@@H]1C` [Example 13-84], the BBB activity result is “− (Compounds that did not meet this threshold are indicated as “−”)”.

For the molecule `C=CC(=O)N1[C@H](C)CN(c2nc(=O)n3c4c(c(-c5cc(I)c(F)cc5F)c(C(F)(F)F)cc24)SC[C@@H]3COC)C[C@@H]1C` (atropisomer, axis not shown) [Example 13-12], the BBB activity entry was “+ (Compounds that were measured as having a total concentration in the brain of at least 60 ng/g are indicated as “+”)”. Regarding `C=CC(=O)N1CCN(c2nc(=O)n3c4c(c(-c5ccc(F)cc5F)c(C(F)(F)F)cc24)SCC3)[C@@H](C)C1` [Example 13-21], the BBB activity result is “+ (Compounds that were measured as having a total concentration in the brain of at least 60 ng/g are indicated as “+”)”. With `C=CC(=O)N1[C@H](C)CN(c2nc(=O)n3c4c(c(-c5cc(Cl)c(F)cc5F)c(C(F)(F)F)cc24)SC[C@@H](Nc2ncccn2)C3)C[C@@H]1C` (atropisomer, axis not shown) [Example 13-73] the entry was “− (Compounds that did not meet this threshold are indicated as “−”)”; with `C=CC(=O)N1[C@H](C)CN(c2nc(=O)n3c4c(c(-c5ccc(F)cc5F)c(C(F)(F)F)cc24)SC[C@@H](OCC)C3)C[C@@H]1C` (atropisomer, axis not shown) [Example 13-58], “− (Compounds that did not meet this threshold are indicated as “−”)”; with `C=CC(=O)N1[C@H](C)CN(c2nc(=O)n3c4c(c(-c5ccc(F)c(Cl)c5)c(C(F)(F)F)cc24)SC[C@@H](OCC)C3)C[C@@H]1C` [Example 13-82], “− (Compounds that did not meet this threshold are indicated as “−”)”.

Take `C=CC(=O)N1[C@H](C)CN(c2nc(=O)n3c4c(c(-c5cc(Cl)c(F)cc5F)c(C(F)(F)F)cc24)SC[C@@H]3COC)C[C@@H]1C` (atropisomer, axis not shown) [Example 13-2]: the BBB activity entry is “+ (Compounds that were measured as having a total concentration in the brain of at least 60 ng/g are indicated as “+”)”. On to `C=CC(=O)N1CCN(c2nc(=O)n3c4c(c(-c5ccc(F)cc5F)c(Cl)cc24)SCCC3)[C@@H](C)C1` [Example 13-61], for which the BBB activity result is listed as “− (Compounds that did not meet this threshold are indicated as “−”)”. For the molecule `C=CC(=O)N1C[C@H](C)N(c2nc(=O)n3c4c(c(-c5ccc(F)cc5F)c(Cl)cc24)OC[C@H]3CC2CCN(C)CC2)C[C@H]1C` [Example 13-85], the BBB activity entry was “− (Compounds that did not meet this threshold are indicated as “−”)”. Take `C=CC(=O)N1[C@H](C)CN(c2nc(=O)n3c4c(c(-c5ccc(F)cc5)c(C(F)(F)F)cc24)SC[C@@H](OCOC)C3)C[C@@H]1C` [Example 13-83]: the BBB activity result was “− (Compounds that did not meet this threshold are indicated as “−”)”. For `C=CC(=O)N1[C@H](C)CN(c2nc(=O)n3c4c(c(-c5ccc(F)cc5F)c(C(F)(F)F)cc24)SC[C@@H](OCC)C3)C[C@@H]1C` (atropisomer, axis not shown) [Example 13-52], the BBB activity entry is listed as “− (Compounds that did not meet this threshold are indicated as “−”)”. As for `C=CC(=O)N1CCN(c2nc(=O)n3c4c(c(-c5cc(Cl)c(F)cc5F)c(Cl)cc24)OC[C@@H]3CN2CCN(CC(F)F)CC2)[C@@H](C)C1` [Example 13-81], the BBB activity entry was “− (Compounds that did not meet this threshold are indicated as “−”)”.

In the case of `C=CC(=O)N1[C@H](C)CN(c2nc(=O)n3c4c(c(-c5ccc(F)cc5)c(C(F)(F)F)cc24)SC[C@@H]3COC)C[C@@H]1C` [Example 13-10], the BBB activity result is recorded as “+ (Compounds that were measured as having a total concentration in the brain of at least 60 ng/g are indicated as “+”)”. With `C=CC(=O)N1C[C@H](C)N(c2nc(=O)n3c4c(c(-c5ccc(F)cc5)c(C(F)(F)F)cc24)SCC2(COC2)C3)C[C@H]1C` [Example 13-79] the entry was “− (Compounds that did not meet this threshold are indicated as “−”)”. The value for `C=CC(=O)N1C[C@H](C)N(c2nc(=O)n3c4c(c(-c5ccc(F)cc5F)c(C(F)(F)F)cc24)SC[C@@H]3CN2CCN(C3CC3)CC2)C[C@H]1C` [Example 13-29] was “+ (Compounds that were measured as having a total concentration in the brain of at least 60 ng/g are indicated as “+”)”; that for `C=CC(=O)N1[C@H](C)CN(c2nc(=O)n3c4c(c(-c5ccc(F)cc5)c(C(F)(F)F)cc24)SC[C@@H](OC)C3)C[C@@H]1C` [Example 13-40] was “+ (Compounds that were measured as having a total concentration in the brain of at least 60 ng/g are indicated as “+”)”. Turning to `C=CC(=O)N1[C@H](C)CN(c2nc(=O)n3c4c(c(-c5cc(Cl)c(F)cc5F)c(C(F)(F)F)cc24)SC[C@@H]3COCOC)C[C@@H]1C` (atropisomer, axis not shown) [Example 13-62], the BBB activity result is listed as “− (Compounds that did not meet this threshold are indicated as “−”)”.

The values are drawn from patent US20230107642A1 (Erasca, Inc., priority 2020, published 2023).
